Source: a melting point compilation (Tetko et al.; mined from patent text by program, amines drawn as free bases though some values may be those of a salt)

Row | Structure (SMILES) | melting point [°C]
1 | CCN(CC)CCCNc1ncc2cc(-c3c(C)cccc3C)c(NC(=O)NC(C)(C)C)nc2n1 | 86 to 91
2 | Nc1c(Cl)ncnc1N[C@@H]1C=C[C@H](CO)C1 | 144 to 146
3 | COc1cc(OC)c2c(=O)[nH]c(-c3cccc(N4CCN(CCO)CC4)n3)nc2c1 | 175 to 177
4 | C1=C(c2ccccc2)CCN(C2CC=C(c3ccccn3)CC2)C1 (stereo not drawn) | 143 to 144
5 | OCc1cccc(Nc2ncc3c(n2)-c2ccccc2[C@H](c2ccccc2F)C3)c1 | 158 to 159
6 | CN(CCO)C(=O)Nc1ccc([N+](=O)[O-])c(C(F)(F)F)c1 | 180 to 181
7 | CCCOC(=O)c1cnc(S)n1C(c1ccccc1)c1ccccc1 | 133
8 | COc1cc2c(cc1OC)C(=CN1CCN(C(=O)c3ccco3)CC1)C(=O)N2 | 158 to 160
9 | Cc1ccc(-c2nsc3[nH]c4ccc(C)cc4c(=O)c23)cc1 | 330
10 | O=C(O)Cc1cccc(OCc2cn(-c3ccc(C(F)(F)F)cn3)nc2C2CCCCC2)c1 | 129 to 130
11 | CCCCn1c(=O)c(NC(=O)Nc2c(C(C)C)cc(NCc3cccnc3)cc2C(C)C)c(-c2cccc(OC)c2)c2cccnc21 | 160 to 161
12 | FC(F)(F)c1ccc(C=Cc2nc(CCl)cs2)cc1 | 93 to 95
13 | ON=CC12CCCN(CCC1)C2 | 115 to 117
14 | COC(=O)C(O)C(NCc1ccccc1)c1ccc(Cl)cc1 (stereo not drawn) | 106 to 108
15 | O=C(NCc1cccnc1)Nc1ccc(S)cc1 | 155 to 159
16 | C#CCN1CSCC1=O | 29 to 31
17 | CC1CCC(=NNc2ccccc2)c2ncc(C(=O)O)c(=O)n21 (single isomer, unassigned; (-)) | 255 to 256
18 | CCOC(=O)c1cnc(Nc2ccccc2OC)[nH]c1=O | 217 to 219
19 | O=C(O)CCC(=O)c1ccc(Oc2ccc(NC(=O)c3ccc(Cl)c(Cl)c3)cc2F)cc1 | 205 to 208
20 | O=C(O)Cn1c(=O)c(=O)[nH]c2cc(Cl)ccc21 | 318 to 319
21 | CC(=O)N1CCC(c2nc3n(C4CCCC4)[nH]c(C)c-3c(=O)n2)CC1 | 176 to 178

Row | Structure (SMILES) | melting point [°C]
22 | CCS(=O)c1cc(C(=O)NCC2CCCN2CC2CC2)c(OC)cc1N (stereo not drawn) | 158 to 162
23 | CCOC(=O)c1cc(=O)c2c(OCC(C)(O)Oc3ccc(Br)cc3)cccc2o1 (stereo not drawn) | 79 to 80
24 | C#Cc1ccc(C(=O)NC(C#N)OCC)cc1 (stereo not drawn) | 104 to 106
25 | CNc1scc(C)c1C(=O)c1ccccc1Cl | 132 to 134
26 | COCc1nccc(=O)[nH]1 | 125 to 127
27 | COc1cc2ncnc(N3CCN(C(=O)NCCc4ccc(Br)cc4)CC3)c2cc1OC | 174 to 175
28 | C[C@@H](CN1CCc2ccc3c(c21)CCO3)NC(=O)OC(C)(C)C | 141 to 142
29 | CNS(=O)(=O)N1CC2(CCN(C(=O)Nc3nnc(-c4ccccc4)s3)CC2)c2ccccc21 | 230 to 231
30 | COc1cc(N)c(Cl)cc1C(=O)NN1CCN(Cc2ccc(N(C)C)cc2)CC1 | 208 to 210
31 | CC(=O)OCc1c(Br)cccc1N1CCc2c(sc3c2CC(C)(C)C3)C1=O | 126 to 128
32 | Oc1ccccc1-c1ccncc1 | 218 to 220
33 | CC(C)(C)C(=O)OCC(CCn1cnc2c(=O)[nH]c(N)nc21)COC(=O)C(C)(C)C | 225 to 237
34 | CC(C)NCC1CCN(c2c(F)cc3c(=O)c(C(=O)O)cn(C4CC4)c3c2F)C1 (stereo not drawn) | 218 to 221
35 | CNCC1Cc2cc(-c3ccccc3)cc(-c3cccc(F)c3)c2O1 (stereo not drawn) | > 250
36 | CSc1cc(C(C)(C)C)c(O)c(C(C)(C)C)c1 | 69 to 71
37 | [N-]=[N+]=NS(=O)(=O)c1cc(C(=O)O)cc(S(=O)(=O)N=[N+]=[N-])c1 | 181 to 183
38 | CNC(=O)/C(=N/OC)c1ccccc1Oc1ccc(C)c(C)c1 | 98 to 100
39 | O=Cc1cc(-c2ncc(C(F)(F)F)cc2Cl)ccc1Cl | 94
40 | CNC1=CC(=O)C(Nc2ncnc3cc(OC)c(OC)cc23)=CC1=O | 283 to 285
41 | CC12CCC(O)CC1CCC1C2CCC2(CN3CCOCC3)C(O)C(N3CCCC3)CC12 (stereo not drawn) | 218

The next lines start with the values.

Row | melting point [°C] | Structure (SMILES)
42 | 110 | OCCCn1c(S)nc2ccccc21
43 | 184 to 185 | Cc1cc(OCC(=O)O)cc(C)c1SCc1sc(-c2ccc(C(F)(F)F)cc2)nc1C
44 | 168 to 170 | CCOC(=O)c1cccc(Nc2nc3ccccc3o2)c1
45 | 226 | CC(C)Cn1c(CO)nc2c(N)nc3c(c21)CCCC3
46 | > 270 | N[C@@]1(C(=O)O)C[C@H](NC(=O)Nc2ccccc2F)[C@H]2[C@H](C(=O)O)[C@H]21 (relative stereo)
47 | 195 to 196 | Cc1ccc(-c2nc(CO[C@H]3CCC[C@@H](C(=O)N[C@H](C(=O)O)C(C)C)C3)c(C)o2)cc1
48 | 288 to 290 | CC(=NNC(=N)N)c1sc(-c2ccc3ccccc3c2)nc1C
49 | 140 to 141 | Cn1ncc2c1-c1c(Sc3ccccc3)sc(C(N)=O)c1CC2
50 | 173 to 174 | CCC1(c2cccs2)NC(=O)NC1=O (stereo not drawn)
51 | 95 to 97 | CCCCNC(=O)N1C2=NC(C)(C)N(C)C(=O)N2c2ccccc21
52 | 206 to 209 | CCc1nn(C2CN(C(C)C)C2)c2c(=O)[nH]c(-c3cc(S(C)(=O)=O)ccc3OCC(C)C)nc12
53 | 180 to 182 | Cn1nncc1-c1cc(C=O)c2occc2c1
54 | 109 to 110 | CC(C)(C)OC(=O)N1CCC(c2ccc(N3C[C@H](CN=[N+]=[N-])OC3=O)cc2F)CC1
55 | 111 to 113 | N#CCCNN=Cc1ccc(C=NNCCC#N)cc1
56 | 162 to 163 | COc1ccc2c(c1)C(=O)c1c-2c(N2CCN(C(=O)CCCl)CC2)nc2ccccc12
57 | 99 to 100 | CCC(=O)Cc1cc2cc(OCCNC[C@H](O)COc3ccccc3)ccc2o1

Row | melting point [°C] | Structure (SMILES)
58 | 113 | CCOC(=O)COc1ccc(CCCOC(=O)NCC2CC2)c(Oc2ncc(C(F)(F)F)cc2Cl)c1
59 | 222 to 223 | Nc1nccc(-c2c(-c3ccccc3)nn3ccccc23)n1
60 | 85 to 88 | OCc1cc(COc2ccc(Cl)cc2Cl)cc(OCc2ccccc2)c1
61 | 104 to 105 | CC(=O)CC(=O)c1cccc2[nH]ccc12
62 | 115 to 117 | O=C(O)c1ccc(OCCCCCCCCCCO)cc1
63 | 95 to 96 | Fc1ccc(C(=C(c2ccccc2)C(F)(F)F)c2ccc(OCCN3CCOCC3)cc2)cc1
64 | 100 to 103 | O=C(O)CCCCCCCCn1nc(-c2ccccc2)c(-c2ccccc2)cc1=O
65 | 95 to 96 | N#CNc1ccccc1-c1ccc(F)cc1
66 | 117 to 118 | COC(=O)C=Cc1ccc(OCC(C)=O)cc1
67 | 134 to 135 | O=C(O)c1cc([N+](=O)[O-])ccc1OC(F)(F)F
68 | 243 to 246 | C[C@H](CO)Nc1nc(SCc2cccc(F)c2F)nc2c1=NC(=O)C(=O)N=2
69 | > 250 | Cc1nc2c(N)nc3ccccc3c2n1CC1(O)CCCCC1
70 | 154 to 155 | CCOC(=O)c1cn(CCCl)c2nc(N3CCN(C)CC3)ncc2c1=O
71 | 174 | CC(C)(Cc1ccc(Cl)cc1)C(O)(Cn1ccnc1)c1ccc(Cl)cc1 (stereo not drawn)
72 | 83 | CC(C)(C)OC(=O)C(=NOC(C)(C)C(=O)OCC[Si](C)(C)C)c1csc(N)n1
73 | > 160 | CC(C)n1nc2c(F)cccc2c1-c1ccc(O)cc1O
